“And” between values parts separate entries of the source, which are not always exact repeats. Equal values may be shown once.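 Briefly, cells in 96-well plates were exposed to five compound concentrations for 48 h, and endpoints were estimated by linear interpolation. The concentration for 50% growth inhibition is given as GI50. TGI: concentration producing complete growth inhibition.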
What was measured:
Assay in all cases: growth of human tumour cells (NCI), 48 h
[1] = tested on: A498 renal
[2] = tested on: HL-60(TB) leukemia
[3] = tested on: IGROV1 ovarian
[4] = tested on: RPMI-8226 leukemia
[5] = tested on: SF-295 CNS
[6] = tested on: SK-MEL-28 melanoma
[7] = tested on: SN12C renal
[8] = tested on: MCF7 breast
[9] = tested on: MDA-MB-435
[10] = tested on: NCI/ADR-RES ovarian
[11] = tested on: PC-3 prostate

O=C1c2ccccc2N2OC3(N4CCOCC4)CCCC3C12c1ccccc1 (stereo unspecified)
TGI [1]: > 100 µM
TGI [2]: > 100 µM
TGI [3]: > 100 µM
TGI [4]: > 100 µM
TGI [5]: > 100 µM
TGI [6]: > 100 µM
TGI [7]: > 100 µM

CC(N)(CC(O)(C(F)(F)Cl)C(F)(F)Cl)C(=O)O (stereo unspecified)
TGI [1]: > 10 µM
TGI [3]: > 10 µM
TGI [8]: > 10 µM
TGI [9]: > 10 µM
TGI [10]: > 10 µM
TGI [11]: > 10 µM
TGI [5]: > 10 µM
TGI [6]: > 10 µM
TGI [7]: > 10 µM

CC(SC(=S)N1CCOCC1)C(=O)Nc1nnc(-c2ccc(Cl)cc2)o1 (stereo unspecified)
TGI [1]: > 100 µM
TGI [3]: > 100 µM
TGI [8]: > 100 µM
TGI [9]: > 100 µM
TGI [10]: > 100 µM
TGI [11]: > 100 µM
TGI [4]: 66.3 µM
TGI [6]: > 100 µM
TGI [7]: > 100 µM

O=C(c1ccccc1)[C@H]1Nc2ccc(Cl)cc2[C@H]2CCC[C@@H]12
TGI [3]: > 100 µM
TGI [4]: 57.1 µM
TGI [5]: > 100 µM
TGI [6]: 92.6 µM
TGI [7]: 92.5 µM

O=[N+]([O-])c1ccc(/C=N/Nc2nc3ccccc3[nH]2)o1
TGI [2]: 11.4 µM
TGI [3]: 26.7 µM
TGI [9]: 18 µM
TGI [10]: > 100 µM
TGI [11]: 49.2 µM
TGI [4]: 15.3 µM
TGI [5]: 41.7 µM
TGI [6]: 23.8 µM
TGI [7]: 32.6 µM

O=C1CC(c2cccc(Cl)c2)Nc2ccc(N3CCCC3)cc21 (stereo unspecified)
TGI [1]: > 100 µM
GI50 [8]: 0.0649 µM
TGI [8]: > 100 µM
TGI [11]: > 100 µM
TGI [4]: 0.0171 µM
TGI [5]: > 100 µM
TGI [6]: > 100 µM
TGI [7]: 0.0151 µM

CN1CCOC(C(NC(=O)c2ccccc2)c2ccccc2)C1=O (stereo unspecified)
TGI [1]: > 100 µM
TGI [2]: > 100 µM
TGI [3]: > 100 µM
TGI [4]: > 100 µM
TGI [5]: > 100 µM
TGI [6]: > 100 µM
TGI [7]: > 100 µM

O=C(NCCC1CNc2ccccc21)OCc1ccccc1 (stereo unspecified)
TGI [1]: > 100 µM
TGI [3]: > 100 µM
TGI [8]: > 100 µM
TGI [9]: > 100 µM
TGI [10]: > 100 µM
TGI [11]: > 100 µM
TGI [4]: > 100 µM
TGI [5]: > 100 µM
TGI [6]: > 100 µM

COc1cc(C2c3cc4c(cc3OC(NN)C2C)OCO4)cc(OC)c1O (stereo unspecified)
TGI [2]: 5.32 µM
TGI [3]: > 100 µM
TGI [8]: > 100 µM
TGI [10]: 94 µM
TGI [11]: > 100 µM
TGI [4]: 17.8 µM
TGI [5]: 14.7 µM
TGI [6]: 33.9 µM
TGI [7]: 62.2 µM

O=C(CCc1cc(O)cc(O)c1)NCCc1cc(O)cc(OCc2ccccc2)c1
TGI [1]: > 100 µM
TGI [3]: > 100 µM
TGI [8]: > 100 µM
TGI [9]: > 100 µM
TGI [10]: > 100 µM
TGI [11]: > 100 µM
TGI [4]: 90.5 µM
TGI [5]: > 100 µM
TGI [6]: > 100 µM
TGI [7]: > 100 µM

O=[N+]([O-])c1cccc2nc3ccccc3c(NCCCCCNc3c4ccccc4nc4cccc([N+](=O)[O-])c34)c12
TGI [1]: 0.248 µM
TGI [2]: 0.0429 µM
GI50 [3]: 0.127 µM
TGI [3]: 0.506 µM and 1.2 µM
GI50 [9]: 0.105 µM and 0.0111 µM
TGI [9]: 0.259 µM and 0.0288 µM
GI50 [10]: 0.297 µM
TGI [10]: 2.19 µM and 1.28 µM
TGI [11]: 0.598 µM
TGI [4]: 0.637 µM
GI50 [5]: 0.0226 µM
TGI [5]: 0.905 µM and 1.13 µM
GI50 [6]: 0.0559 µM
TGI [6]: 0.455 µM and 0.241 µM
TGI [7]: 0.0777 µM and 0.0827 µM

C1CCC(N=C2N(C3CCCCC3)C(=NC3CCCCC3)N2C2CCCCC2)CC1
TGI [2]: > 100 µM
TGI [3]: > 100 µM
TGI [4]: > 100 µM
TGI [5]: > 100 µM
TGI [6]: > 100 µM
TGI [7]: > 100 µM

CCCCCCCCOCC(COC(=O)CCCCCCC)OC(=O)CCCCCCC (stereo unspecified)
TGI [1]: > 100 µM
TGI [2]: > 100 µM
TGI [3]: > 100 µM
TGI [4]: > 100 µM
TGI [5]: > 100 µM
TGI [6]: > 100 µM
TGI [7]: > 100 µM

COc1ccc(-c2oc3cc(-c4cc5oc(-c6ccc(OC)cc6)c(-c6ccc(OC)cc6)c5cc4OC)c(OC)cc3c2-c2ccc(OC)cc2)cc1
TGI [1]: > 100 µM
TGI [3]: > 100 µM
TGI [8]: > 100 µM
TGI [9]: > 100 µM
TGI [10]: > 100 µM
TGI [11]: > 100 µM
TGI [4]: > 100 µM
TGI [5]: > 100 µM
TGI [6]: > 100 µM
TGI [7]: > 100 µM

COC(=O)/C=C/c1ccc(OP(=O)(O)O)c(OC)c1
TGI [1]: > 100 µM
TGI [3]: > 100 µM
TGI [8]: > 100 µM
TGI [9]: > 100 µM
TGI [11]: > 100 µM
TGI [4]: > 100 µM
TGI [5]: > 100 µM
TGI [6]: > 100 µM
TGI [7]: > 100 µM

CSc1nncc(-c2cc3c(c(SC)n2)CCCC3)n1
TGI [1]: > 100 µM
TGI [2]: > 100 µM
TGI [9]: > 100 µM
TGI [10]: > 100 µM
TGI [11]: > 100 µM
TGI [4]: > 100 µM
TGI [5]: > 100 µM
TGI [6]: > 100 µM
TGI [7]: > 100 µM

N#Cc1sc2nc3ccccc3n2c1N
TGI [1]: > 100 µM
TGI [3]: > 100 µM
TGI [8]: > 100 µM
TGI [9]: > 100 µM
TGI [10]: > 100 µM
TGI [11]: > 100 µM
TGI [4]: > 100 µM
TGI [5]: > 100 µM
TGI [6]: > 100 µM

CC1(C)O[C@@H]2[C@@H](COC(C)(C)O[C@H]2C2SCCCS2)O1
TGI [1]: > 100 µM
TGI [8]: > 100 µM
TGI [9]: > 100 µM
TGI [10]: > 100 µM
TGI [11]: > 100 µM
TGI [4]: > 100 µM
TGI [5]: > 100 µM
TGI [6]: > 100 µM
TGI [7]: > 100 µM

Source: PubChem BioAssay (NCI)
